Reference: patent publication US7282507B2, “Indole derivatives as selective androgen receptor modulators (SARMS)” (Janssen Pharmaceutica N.V., priority 2004, dated 2007)
Several values for one entry are separate records, joined by “and”; a condition that tells them apart may be missing. Equal entries are not always repeated.

Columns and labels:
[1] = system: testosterone-enhanced ventral prostate and seminal vesicle weights; assay: Ventral Prostate and Seminal Vesicle Weight in vivo Assay; parameters: species or system rat; conditions: immature castrated male Sprague Dawley rats, once daily for five days, usually orally 40 mg/kg, with testosterone propionate 2 mg/kg s.c. Note: key: 'active' if the non weight adjusted prostate weight was ≦40 mg or the % Inhibition prostate weight, body weight adjusted was ≧40% @ 2 mg/day dosage; ID50's, if determined, of ≦15 mg/day also indicated an 'active' compound; listed herein as 'inactive' as they did not meet the specified criteria defined above.
Procedure: Immature (approximately 50 g) castrated male Sprague Dawley rats (Charles River) were treated once daily for five days with test compound (usually given orally at 40 mg/kg in a volume of 0.3 mL, in 30% cyclodextrin or 0.5% methylcellulose vehicle) and with testosterone propionate (given subcutaneously by injection at the nape of the neck at 2 mg/kg, in a volume of 0.1 mL in sesame oil). On the sixth day, the rats were euthanized by asphyxiation in carbon dioxide. Ventral prosatates and seminal vesicles were removed and their wet weights determined.
A test compound was said to be “active” if the non weight adjusted prostate weight was ≦40 mg or the % Inhibition prostate weight, body weight adjusted was ≧40% @ 2 mg/day dosage.

[2] = target: T1, androgen receptor (AdEasy+rAR, L929 cells) (Rattus norvegicus, UniProt P15207); assay: L929 Androgen Receptor Functional Assay, Adenovirus Transduction; format: cell-based; conditions: for % Activity, L929 androgen receptor functional assay / EC50: agonist testing; for % Inhibition, L929 androgen receptor functional assay: antagonist testing with R1881, 3000 nM; for inhibition at 3 µM: L929, antagonist testing with R1881, 3000 nM; for IC50: antagonist testing with R1881
T1 construct: expressed in transfected cells; host or cells: L929 cells transduced with adenovirus AdEasy+rAR
T1 sequence (P15207 1-902): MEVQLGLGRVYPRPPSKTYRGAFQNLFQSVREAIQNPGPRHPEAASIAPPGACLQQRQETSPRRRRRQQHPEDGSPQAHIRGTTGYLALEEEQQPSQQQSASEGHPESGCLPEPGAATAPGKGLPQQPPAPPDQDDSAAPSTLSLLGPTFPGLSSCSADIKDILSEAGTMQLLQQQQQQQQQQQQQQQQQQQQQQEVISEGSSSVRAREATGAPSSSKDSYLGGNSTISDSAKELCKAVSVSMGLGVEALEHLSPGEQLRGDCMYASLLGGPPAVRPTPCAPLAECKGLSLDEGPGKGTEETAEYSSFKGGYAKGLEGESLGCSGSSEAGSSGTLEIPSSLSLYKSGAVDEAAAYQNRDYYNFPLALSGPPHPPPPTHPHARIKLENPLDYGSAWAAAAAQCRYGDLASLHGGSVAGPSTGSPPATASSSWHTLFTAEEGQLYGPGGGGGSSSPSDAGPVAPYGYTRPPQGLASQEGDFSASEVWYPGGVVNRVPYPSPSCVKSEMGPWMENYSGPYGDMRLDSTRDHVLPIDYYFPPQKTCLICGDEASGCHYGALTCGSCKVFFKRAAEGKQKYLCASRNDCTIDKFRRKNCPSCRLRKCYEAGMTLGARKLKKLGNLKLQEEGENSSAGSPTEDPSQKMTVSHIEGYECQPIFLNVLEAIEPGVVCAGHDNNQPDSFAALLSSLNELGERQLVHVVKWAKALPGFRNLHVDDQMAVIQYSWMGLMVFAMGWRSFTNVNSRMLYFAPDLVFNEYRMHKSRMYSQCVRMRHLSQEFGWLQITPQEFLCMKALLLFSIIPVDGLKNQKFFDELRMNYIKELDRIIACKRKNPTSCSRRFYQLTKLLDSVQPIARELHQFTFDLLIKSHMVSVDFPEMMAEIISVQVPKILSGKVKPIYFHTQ
Procedure: L929 cells were plated in 96-well plates at 20,000 cells per well, in DMEM/F12 (GIBCO) containing 10% (v/v) charcoal-treated fetal bovine serum (Hyclone) and lacking phenol red. The plates were then incubated overnight at 37° C. in 5% (v/v) humidified CO2.
Test compound dilutions were prepared in 100% (v/v) DMSO, if necessary. Each dilution was made to 1250× the final desired assay concentration.
First, 2 mL of DMEM/F12 lacking phenol red was pipetted into the wells of a 2-mL 96-well assay block. Next, 4 μL of the 1250× test compound dilutions were pipetted into each well of the assay block. The mixtures within the well were then carefully mixed by pipette.
In a 15 mL or 50 mL sterile centrifuge tube, a 2.5 nM (2.5×) dilution of R1881 (methyl-trienolone) in DMEM/F12 lacking phenol red was prepared.
In a second 15 mL or 50 mL centrifuge tube a solution containing an equal volume of DMEM to the first and an equal volume of 100% (v/v) DMSO to the volume of R1881 used in the first tube was prepared.
In a 15 mL or 50 mL sterile centrifuge tube, a dilution in DMEM/F12 of the adenovirus AdEasy+rAR at an moi of 1:500 per well was prepared.
The medium was removed from the 96-well plates by inversion and dried, inverted, very briefly. As soon as possible after medium removal, 40 μL of the diluted unlabeled test compound was added to each well, in duplicate. To each well designated for antagonist testing was added 40 μL of the 2.5 nM R1881 dilution to the wells for antagonist testing. To each well designated for agonist testing was added 40 μL of the DMSO dilution. Then 20 μL of the diluted adenovirus were added to all wells. The plates were incubated for 48 hours at 37° C. in 5% (v/v) humidified CO2.
To each well was added 100 μL of Steady-Glo luciferase assay substrate (Promega) and the plates were placed on a rotary shaker for 1 min. The plates were then incubated at room temperature in the dark for one hour. The contents of each well were then transferred to a white microtiter plate (Packard) and read on a Luminoskan Ascent (Thermo Lab Systems).
L929 AR percent activity was determined by testing dilutions of the test compound using a concentration of 3000 nM unless otherwise noted. L929 percent inhibition was determined by testing dilutions of the test compound using a concentration of 3000 nM. […] Luciferase activity per well were measured and EC50s and IC50s determined by linear regression.

[3] = target: T2, androgen receptor (rat ventral prostate cytosol) (Rattus norvegicus, UniProt P15207); assay: Androgen Receptor Binding Using Rat Ventral Prostate Cytosol; conditions: for IC50: read-out: IC50 (nM), Androgen Receptor Binding (Rat Cytosol)
T2 construct: from tissue; host or cells: ventral prostate cytosol of castrated male Sprague Dawley or Wistar rats
T2 sequence (P15207 1-902): T1 sequence (P15207 1-902)
Procedure: The assay was run on a 96 well plate with each well filled with a total reaction volume 150 μL, of a solution containing 5 pmol androgen receptor LBD (Panvera) or 30 μL of freshly prepared rat cytosol, 0.5 nM [^3H] […] (TED buffer contains 10 mM Tris.HCl pH 7.4, 1 mM sodium molybdate, 1.5 mM EDTA, 1 mM DTT and 10% (v/v) glycerol.)
On day one, the solution containing receptor, tracer and TED buffer was distributed into a 96 well plate. Diluted test compound or control vehicle was then added to individual wells and the plate incubated at 4° C. overnight.
On day two, to each well was then added 20 μL human γ-globulin (ICN 823102), prepared at 25 mg/ml in TE pH 8.0, and 55 μL 40% polyethylene glycol 8000 (J T Baker U222-08), prepared in TE pH 8.0. The plate was incubated at 4° C. for 60 minutes. During incubation, the harvester was rinsed with 10% PEG 8000, prepared in TE pH 8.0, and a GF/C Unifilter-96 was pre-wet with 10% PEG. The binding reaction was filtered, the retentate was washed three times with 10% PEG and dried under vacuum for a couple of minutes, then dried at 50° C. for 5 min and the plate was bottom sealed. Next, 25 μL of Microscint-20 (Packard) was added to the filter wells and the plate was top sealed. The plate wells were then counted on a TopCount (Packard).
Rat Prostate Cytosol Preparation:
Male Sprague Dawley or Wistar rats (Charles River, 200-300 g) were used for each preparation. The day before preparing the cytosol, the rats were castrated using standard surgical procedures.
The rats were euthanized by carbon dioxide asphyxiation. The rat prostates were quickly removed and placed on ice in pre-chilled, pre-weighed 50 mL plastic tubes. No more than five prostates were placed into one tube. The tubes were then weighed and the prostate tissue wet weights calculated.
To the chilled prostate tissue was then added […] of chilled homogenization buffer. The homogenization buffer was freshly prepared by mixing 10 mM Tris.HCl, pH 7.4, 1 mM sodium molybdate, 1.5 mM EDTA, 1 mM dithiothreitol, 10% (v/v) glycerol and 1% protease inhibitor cocktail (Sigma P 8340).
The prostate tissue was homogenized in a cold room using a pre-chilled Polytron PT3000 homogenizer (Brinkmann). Homogenization was performed at a speed setting of 20, three times for 10 sec bursts. The tubes containing the prostate tissue was kept on ice while homogenizing. The homogenate was allowed to rest on ice for 20 sec between bursts.
The homogenate was then placed into pre-chilled 3 mL polycarbonate ultracentrifuge tubes and centrifuged in the TLA-100 rotor of a TL-100 ultracentrifuge for 12 min at 100,000 rpm at 4° C. The resulting supernatant was stored in 1 mL aliquots at −80° C. until needed.
Binding to the androgen receptor was determined according to the protocol described in Example 86 using the above prepared rat cytosol.
% Inhibition was determined by testing dilutions of the test compound (usually duplicates of 10 μM) in the binding assay. Counts per well were measured and percents of inhibition determined. […] Counts per well were measured and IC50s determined by linear regression.

Row | SMILES | active / inactive: inhibition of testosterone-enhanced prostate weight [1] | % Activity, L929 androgen receptor functional assay ([2]; 3000 nM) | other results
1 | CCS(=O)(=O)CC(C)(O)c1cc2cc(C#N)c(C(F)(F)F)cc2n1C (racemic) [Compound 240] | inactive | 0% | 
2 | OC1(c2cc3cc(Cl)c(C(F)(F)F)cc3[nH]2)CCN(Cc2ccc(C(F)(F)F)cc2)CC1 [Compound 33] |  |  | % Inhibition, Androgen Receptor Binding (Rat Cytosol) ([3]; Concentration 1000 nM): 11%; IC50 [3]: 29000 nM
3 | Cc1ccc(CN2CCC(O)(c3cc4cc([N+](=O)[O-])c(C(F)(F)F)cc4[nH]3)CC2)cc1 [Compound 42] |  |  | inhibition at 1 µM ([3]; Concentration 1000 nM, read-out: % Inhibition, Androgen Receptor Binding (Rat Cytosol)): 23%; IC50 [3]: 7100 nM
4 | CS(=O)(=O)n1c(C2(O)CCN(C(=O)c3ccc(Cl)cc3)CC2)cc2cc(Cl)c(C(F)(F)F)cc21 [Compound 24] |  |  | % Inhibition, Androgen Receptor Binding (Rat Cytosol) ([3]; Concentration 1000 nM): 2%
5 | CCCSCC(C)(O)c1cc2cc(Cl)c(C(F)(F)F)cc2[nH]1 (racemic) [Compound 196] | inactive | 13% | 
6 | CC[S+]([O-])CC(C)(O)c1cc2cc(C(F)(F)F)c([N+](=O)[O-])cc2[nH]1 (mixture of isomers) [Compound 230] | active | 0% | 
7 | CC(C)(C)c1ccc(CN2CCC(O)(c3cc4cc(Cl)c(C(F)(F)F)cc4[nH]3)CC2)cc1 [Compound 32] |  |  | % Inhibition, Androgen Receptor Binding (Rat Cytosol) ([3]; Concentration 1000 nM): 34%; IC50 [3]: 43000 nM
8 | CC(O)(c1cc2cc([N+](=O)[O-])c(C(F)(F)F)cc2[nH]1)S(=O)(=O)c1ccc(Cl)c(Cl)c1 (racemic) [Compound 255] |  |  | % Inhibition, Androgen Receptor Binding (Rat Cytosol) ([3]; Concentration 1000 nM): 26%
9 | CC[S+]([O-])CC(O)c1cc2cc([N+](=O)[O-])c(C(F)(F)F)cc2[nH]1 (mixture of isomers) [Compound 180] | inactive | 2% | 
10 | CCSCC(C)(O)c1cc2cc(C#N)c(C(F)(F)F)cc2[nH]1 (stereo not shown) [Compound 218, 2-(2-Ethylsulfanyl-1-hydroxy-1-methyl-ethyl)-6-trifluoromethyl-1H-indole-5-carbonitrile] | inactive | 0% | % Inhibition, L929 androgen receptor functional assay ([2]; 3 µM): 62%
11 | CCSCC(C)(O)c1cc2cc([N+](=O)[O-])c(C(F)(F)F)cc2[nH]1 (racemic) [Compound 221] | inactive | −1% | 
12 | CSC(C)(O)c1cc2cc([N+](=O)[O-])c(C(F)(F)F)cc2[nH]1 (racemic) [Compound 267] | inactive |  | % Activity, L929 androgen receptor functional assay ([2]; 3000 nM, 3 µM): −5% and 0%
13 | CC(O)(CS(=O)(=O)CC(F)(F)F)c1[nH]c2cc([N+](=O)[O-])c(C(F)(F)F)cc2c1Cl (stereo not shown) [Compound 207] | active |  | inhibition at 3 µM [2]: 101%; EC50 [2]: > 8000 nM; % Activity, L929 androgen receptor functional assay ([2]; 3000 nM, 3 µM): 1% and −1%; IC50 [2]: 492 nM; % Inhibition, L929 androgen receptor functional assay [2]: 101%
14 | CCSCC(O)(CC)c1cc2cc(C#N)c(C(F)(F)F)cc2[nH]1 (stereo not shown) [Compound 223] | active |  | inhibition at 3 µM [2]: 100%; EC50 [2]: > 8000 nM; % Activity, L929 androgen receptor functional assay ([2]; @ 8000 nM): 0 @ 8000 nM %; IC50 [2]: 277 nM
15 | CC(O)(CS(=O)(=O)CC(F)(F)F)c1cc2cc([N+](=O)[O-])c(C(F)(F)F)cc2[nH]1 (racemic) [Compound 208] | active | 1% | 
16 | CSCCC(C)(O)c1cc2cc(Cl)c(C(F)(F)F)cc2[nH]1 (racemic) [Compound 51] | inactive | 2% | 
17 | CC(O)(CSCc1ccco1)c1cc2cc([N+](=O)[O-])c(C(F)(F)F)cc2[nH]1 (racemic) [Compound 198] | inactive | 7% | 
